Assay results as given in article PMC6019362, “^99mTc标记T7肽及其在裸鼠非小细胞肺癌模型体内的生物分布研究” (Chinese Journal of Lung Cancer, 2014).

Key:
[1] = assay type: in vitro ADME, human
Experimental: 薄层色谱法检测标记率及放化纯度，以硅胶板为固定相，丙酮作为展开系统，毛细管点样，放射性γ计数器进行检测。稳定性检测:取500 μL的^99mTc-T7溶液分别加入1 mL的生理盐水和1 mL人血清中，37 ℃孵育8 h，用薄层色谱法检测放化纯度。

荷人NCI-H157裸鼠肺癌模型 = test system: 荷人NCI-H157裸鼠肺癌模型; set-up: species or system BALB/c裸鼠; settings: in vivo
Experimental: 将NCI-H157细胞株培养至对数生长期，弃去培养液，PBS清洗2次，0.25%胰酶消化，收集细胞，离心，生理盐水重悬并计数。无菌条件下，每只裸鼠右后肢背部皮下注射6×10^6个/200 μL的NCI-H157细胞悬液。裸鼠置于天津市实验动物中心SPF级动物房饲养，当肿瘤长径达0.6 cm-1.0 cm时进行实验(约30 d)。 将荷瘤裸鼠随机分成5组(0.5 h、1 h、2 h、4 h和8 h)，每组5只，分别尾静脉注射3.7 MBq/100 μL的^99mTc-T7溶液，注射后分别在0.5 h、1 h、2 h、4 h和8 h股动脉放血处死，分别取心、肝、脾、肺、肾、肌肉、骨骼、脑、肿瘤、小肠、胃，称湿重，测量γ计数，计算各脏器的每克组织注射剂量百分比(%ID/g)并分析肿瘤/非肿瘤(T/NT)比值。

放化纯 (radiochemical purity) after incubation [1]: > 90%
肿瘤/肌肉放射性比值 (T/NT) (荷人NCI-H157裸鼠肺癌模型): > 5
血脑屏障通过 (blood-brain barrier passage) (荷人NCI-H157裸鼠肺癌模型): 不能正常通过血脑屏障
8 h血放射性摄取值 (%ID/g) 相对于0.5 h (荷人NCI-H157裸鼠肺癌模型; mouse, iv, 3.7 MBq, 8 h): 26%
Sequence: TMPFLFCNVNDVCNFASRNDYSKKK [^99mTc-T7, 羰基锝法标记的肿瘤抑素T7肽, ^99mTc(CO)3^+ labelled 25-mer, integrin αvβ3 targeted imaging probe]
